# Results taken from patent US20140329766A1, “Prophylactic Compositions for Management of Microbial Infections in Patients with Brain Injury” (UTI LIMITED PARTNERSHIP, priority 2011, published 2014).
# B1: recombinant IL-10: Recombinant IL-10 (Cedarlane), a TH2-type cytokine (protein, UniProt P18893 19-178, looked up)
# Interleukin-10: SRGQYSREDNNCTHFPVGQSHMLLELRTAFSQVKTFFQTKDQLDNILLTDSLMQDFKGYLGCQALSEMIQFYLVEVMPQAEKHGPEIKEHLNSLGEKLKTLRMRLRRCHRFLPCENKSKAVEQVKSDFNKLQDQGVYKAMNEFDIFINCIEAYMMIKMKS
# Experiments:
# hepatic iNKT cells = experiment: Spinning disk confocal intravital microscopy of the liver: crawling behaviour of GFP+ (iNKT) cells; assay type: in vivo, mice; settings: post-ischemic Cxcr6gfp/+ mice 24 h after MCAO; for iNKT cell phenotype (cessation of crawling) induced by MCAO: propranolol 30 mg/kg at 4 and 8 h after MCAO, 6-OHDA 250 mg/kg i.p. 3 days prior (FIGS. 32-34)
# Description: Murine liver intravital microscopy was performed as taught by Wong et al. (1997, A minimal role for selectins in the recruitment of leukocytes into the inflamed liver microvasculature. J. Clin. Invest. 99: 2782). Briefly, the tail vein of the anesthetized mice was cannulated to administer fluorescently labeled antibodies and/or additional anesthetic as required. Body temperature was maintained at 37° C. using an infrared heat lamp. Mice were placed in a right lateral position on an adjustable microscope stage. A lateral abdominal incision along the costal margin to the midaxillary line was made to exteriorize the liver, and all exposed tissues were moistened with saline-soaked gauze to prevent dehydration.
# Cells were tracked using ImageJ software version 1.45 (NIH at http://rsb.info.nih.gov/ij/). Time-lapse videos exported from Volocity were imported as .mov file, and then converted to 8-bit grayscale. Fluorescent cells were adjusted using threshold control, and noise particles less than 2.0 pixels were removed by filter. Movement of cells was measured using manual tracking, and was calculated for each track using ImageJ output spreadsheets. The cell velocity was expressed in distance (μm) per time (min). 30-40 tracks from 10 mins videos of each animal in each experimental group were analyzed.
# Excised livers were prepared for in vivo microscopic observation. Briefly, the liver was placed on the pedestal of an inverted microscope and the liver surface was then covered with a small piece of saline-soaked KimWipe to hold the organ in position. The liver microvasculature was visualized using a spinning-disk confocal microscopy and images were acquired with an Olympus IX81 inverted microscope using a ×10/0.40 UplanFL N objective. The microscope was equipped with a confocal light path (WaveFx, Quorum, Guelph, ON, CA) based on a modified Yokogawa CSU-10 head (Yokogawa Electric Corporation, Tokyo, Japan). Cxcr6^gfp/+ mice were used to visualize hepatic iNKT cells. Laser excitation wavelengths (Cobolt, Stockholm, Sweden) were used in rapid succession and visualized with the appropriate long-pass filters (Semrock, Rochester, N.Y.). Typical exposure time for each excitation wavelength was 300 milli-seconds. A 512×512 pixel back-thinned electron-multiplying charge-coupled device camera (C9100-13, Hamamatsu, Bridgewater, N.J.) was used for fluorescence detection. Volocity Acquisition software (Improvision) was used to drive the confocal microscope. […] Behaviors of iNKT cells in the hepatic microvasculature were assessed.
# Wildtype mice underwent the MCAO procedure as previously described in Example 1. […] The crawling behaviours of crawling GFP+ cells in livers from sham-operated control mice and post-ischemic mice were observed and quantified using the methods disclosed in Example 2.
# post-stroke infections = experiment: Bacteriological analysis (CFU) of blood, lungs, liver and spleen after MCAO; assay type: in vivo, mice; settings: for bacterial infections at 24 h after MCAO: wild-type mice receiving propranolol or 6-OHDA (FIGS. 44A-44D)
# Description: Mice underwent the mid-cerebral artery occlusion (MCAO) model of cerebral ischemia-reperfusion injury as previously described (Connolly, Jr. et al., 1996; Wong et al., 2008). Male mice of 8-12 weeks old were anesthetized by intraperitoneal injection of a mixture of 10 mg/kg xylazine hydrochloride (MTC Pharmaceuticals, Cambridge, ON) and 200 mg/kg ketamine hydrochloride (Rogar/STB, London, ON). Body temperature was maintained at 37° C. using a heating pad and temperature regulator with rectal probe. Mice were randomly divided into 2 groups: (i) sham-operated, and (ii) MCAO-operated. All surgical instruments were sterilized before the surgery. Before any incision, the area was swabbed with ethanol. To induce MCAO, a 10-mm incision was made on the right-hand side of the neck. Then, the common carotid artery, external carotid artery, and internal carotid artery were dissected free. The external carotid artery was further dissected distally, then coagulated and cut to serve as a stump. After applying temporary clamps at the common carotid artery and internal carotid artery, a monofilament with a silicon coating diameter of 0.21-0.23 mm (Doccol Corporation, Redlands, Calif., USA) was inserted into the stump of the external carotid artery. The monofilament then advanced a defined distance (12 mm) so that the distal end of the monofilament came to rest across the origin of the MCA. The stump of external carotid artery was tied off. The wound on the neck of the mouse was sutured and the mouse was then transferred onto a heat pad to maintain its body temperature at 37° C. After 30 mins of occlusion, the monofilament was withdrawn to allow reperfusion to occur. The animal then recovered from the anaesthesia. Rehydration of the mice was performed every 4 h with a subcutaneous injection of electrolytes and glucose. Food pellets softened with water were placed in the cage after surgery as the mice recovered, and access to water was provided. Sham-operated animals were subjected to the initial anaesthetic and neck incision only. The animals were then allowed to recover from anaesthetic. All animals were put onto a 37° C. heat pad, post-surgery, to recover from anaesthesia until euthanized.
# (§1) The anaesthetized mice from Example 1 were washed with 70% ethanol under sterile conditions. Blood was collected by cardiac puncture. The lungs, liver and spleen were removed after thoracotomy and homogenized. For determination of colony forming units (CFU), 10 μl of tissue homogenate or blood was serially diluted, plated onto brain heart infusion (BHI) agar plates supplemented with 5% sheep blood (Daylnn Biologicals, Alberta, Canada), incubated at 37° C. for 18 h, and bacterial colonies were counted.
# as §1, with “Example 7” for “Example 1”
# [1] = assay type: in vivo; settings: post-ischemic Cxcr6gfp/+ mice (FIG. 37)
# Description: Body temperature was maintained at 37° C. using a heating pad and temperature regulator with rectal probe. Mice were randomly divided into 2 groups: (i) sham-operated, and (ii) MCAO-operated. All surgical instruments were sterilized before the surgery. Before any incision, the area was swabbed with ethanol. To induce MCAO, a 10-mm incision was made on the right-hand side of the neck. Then, the common carotid artery, external carotid artery, and internal carotid artery were dissected free. The external carotid artery was further dissected distally, then coagulated and cut to serve as a stump. After applying temporary clamps at the common carotid artery and internal carotid artery, a monofilament with a silicon coating diameter of 0.21-0.23 mm (Doccol Corporation, Redlands, Calif., USA) was inserted into the stump of the external carotid artery. The monofilament then advanced a defined distance (12 mm) so that the distal end of the monofilament came to rest across the origin of the MCA. The stump of external carotid artery was tied off. The wound on the neck of the mouse was sutured and the mouse was then transferred onto a heat pad to maintain its body temperature at 37° C. After 30 mins of occlusion, the monofilament was withdrawn to allow reperfusion to occur. The animal then recovered from the anaesthesia. […]
# [2] = Brain infarct size after MCAO; assay type: in vivo, mice; settings: systemic propranolol or 6-OHDA (FIG. 36)
# iNKT cells [3] = experiment: Localized noradrenalin superfusion on the liver of Cxcr6gfp/+ mice; assay type: in vivo
# Description: Alexa Fluor 647-conjugated rat anti-mouse PECAM-1 (clone 390; 1 μl) purchased from eBioscience (San Diego, Calif., USA) was mixed with the noradrenalin (5 μg; Sigma) to enable visualization of the epicentre of noradrenalin superfusion. Using intravital spinning-disk confocal microscopy, the behavior of iNKT cells was visualized and tracked in the epicentre of, and distant from the localized noradrenalin in the livers of Cxcr6^gfp/+ mice.
# iNKT cells [4] = experiment: In vitro noradrenalin activation of isolated iNKT cells; assay type: cell-based, mice
# Description: After gentle agitation at 37° C. for 30 min, the concentrate was passed through a 40-μm nylon filter and washed twice with ice-cold PBS (pH 7.4) and centrifuged at 400×g for 10 min. Lymphocytes were purified on a 44%/70% Percoll gradient and were negatively selected with anti-Gr-1 (RB6-8C5; eBioscience), anti-F4/80 (BM8; eBioscience), anti-CD19 (1D3; eBioscience), and anti-CD8a (53-6.7; eBioscience) microbeads and MiniMACS column (Miltenyi Biotech) to remove neutrophils, macrophages, B cells, and CD8+ cells, respectively. A pure iNKT cell population consisting of TCRf3+ and GFP+ cells were sorted. Purity of isolated iNKT cells was >95%. iNKT cells were seeded at 5×10^5 cells into plasma-coated 6 cm clear flat glass bottom dishes and allowed to settle in DMEM containing 10% FCS for 1 h. To examine noradrenalin activation of iNKT cells in vitro, iNKT cells were either pretreated with 400 μM propranolol and then treated with 200 μM noradrenalin or the iNKT cells were subjected to 200 μM noradrenalin alone. The behavior of iNKT cells was visualized and recorded with FluoView FV1000 confocal fluorescence microscope (Olympus). The recorded images were randomized and analyzed by three blinded investigators.
# [5] = tested on: intracellular IFNγ and IL-10 production; experiment: Intracellular cytokine analysis by flow cytometry; assay type: in vivo; settings: post-ischemic wild-type mice treated with propranolol (FIG. 48)
# Description: For intracellular cytokine analysis, liver single cell suspensions from sham-operated and post-ischemic Cxcr6^gfp/+ mice were stained with PerCP-conjugated anti-CD69, washed with cold FWB, resuspended in Cytofix/Cytoperm (BD Bioscience) for 30 min on ice. Samples were washed in Perm/Wash (BD Bioscience) and then stained with Alexa Fluor 450-conjugated anti-IFNγ (XMG1.2, eBioscience) and PE-conjugated anti-IL-4 (11B11, BD Pharmingen) or PE-conjugated anti-IL-10 (JESS-16E3, eBioscience).
# [6] = 5 μg, liver of Cxcr6gfp/+ mice (FIGS. 38-40)
molecule,measurement,setting,value
"NCCc1cc(O)c(O)cc1O [Formula 6-OHDA, 6-hydroxydopamine]",iNKT cell phenotype (cessation of crawling) induced by MCAO,hepatic iNKT cells,completely inhibited
same,bacterial infections at 24 h after MCAO,post-stroke infections,significantly reduced
same,Mortality at 24 h of reperfusion,[1],50%
same,infarct size in post-ischemic mice,[2],did not alter
NC[C@H](O)c1ccc(O)c(O)c1 [noradrenaline],crawling behavior of iNKT cells in an area of liver distant from the superfusion,iNKT cells [3]; 5 μg (FIGS. 38-40),did not alter
same,crawling iNKT cells in the epicenter of noradrenaline administration,iNKT cells [3]; [6],Significantly fewer iNKT cells crawled
same,pirouetting iNKT cells in the epicenter of noradrenaline administration,iNKT cells [3]; [6],more cells adopted a pirouetting phenotype
same,iNKT cell morphology in vitro,iNKT cells [4]; 200 μM noradrenalin alone (FIG. 41),developed a pseudopod-protruding phenotype
CC(C)NCC(O)COc1cccc2ccccc12 (stereo not shown) [propranolol],intracellular IL-10 versus IFN-γ production,[5],reversed the preference for intracellular IL-10 production back to an intracellular IFN-γ dominant production
same,iNKT cell phenotype (cessation of crawling) induced by MCAO,hepatic iNKT cells,reversed
same,protection from infection (bacterial loads in peripheral blood and lungs),post-stroke infections; post-ischemic Cd1d-/- mice (FIG. 46),no protection
same,bacterial infections at 24 h after MCAO,post-stroke infections,significantly reduced
same,noradrenaline-induced behavioral change of iNKT cells in vitro,"iNKT cells [4]; pretreatment 400 μM propranolol, then 200 μM noradrenalin (FIG. 42)",inhibited
same,infarct size in post-ischemic mice,[2],did not alter
apyrase,iNKT cell arrest in response to MCAO,"hepatic iNKT cells; treatment just prior to MCAO (FIGS. 29, 30)",no effect
B1,stroke-induced lung infections (bacterial load in the lungs),"post-stroke infections; wild-type mice pretreated i.v. 1 h prior to MCAO, 1 μg/mouse (FIG. 22)",increased
